Source: patent publication US11446270B2, “Leonurine crystal and use thereof in preparation of insulin sensitizer, hypoglycemic drug and lipid-lowering drug” (ZHUHAI HENGQIN NEW DISTRICT ZHONGZHU ZHENGTAI MEDICAL …, priority 2017, dated 2022)

Experiments:
New Zealand white rabbit = assay: Serum lipids in hyperlipidemia New Zealand rabbits on high fat diet; assay type: in vivo; settings: positive control 2.5 mg/kg/day intragastric, 12 weeks, vs model group
Procedure: Forty-eight male New Zealand rabbits weighed 1.8 to 2.2 kg were housed under 12 h dark-12 h light cycles and allowed food and water ad libitum to adapt to the housing environment for one week, and then randomly divided into 6 groups: • 1) Control group (Normal diet, n=8); Administered intragastrically with ultrapure water; • 2) Model group (High fat diet, n=8); Administered intragastrically with ultrapure water; • 3) Leonurine crystal form A in low dose group (High fat diet, n=8); Administered intragastrically at a dose of 4 mg/kg/day; • 4) Leonurine crystal form A in middle dose group (High fat diet, n=8); Administered intragastrically at a dose of 8 mg/kg/day; • 5) Leonurine crystal form A in high dose group (High fat diet, n=8); […] Administered intragastrically at a dose of 2.5 mg/kg/day; Rabbits were weighed before administered drugs every week, where the dosage of the drug for rabbits is calculate according to the weight; and housed in an air-conditioned room under (24±1° C. room temperature and 55±5% air humidity) and allowed enough food and water ad libitum. After 12 weeks of administration, the rabbits were fasted for 12 h, and blood (2 ml) was drawn from the marginal ear vein for hematology analysis. Hematology analysis: blood samples were let for standing for 2 h and centrifuged (3000 rpm, 10 min, 4° C.) to obtain serum. The serum samples were tested according to the protocols recommended by Nanjing Jiancheng Bioengineering Institute. The total cholesterol (TC), triacylglycerol (TG), low-density cholesterol (LDL-C) and […] (HDL-C) levels in the serum samples were assessed using automatic microplate reader and automatic biochemical analyzer. Statistical analysis: GraphPad Prism 5 software was used to analyze and draw figure. Results were expressed as the mean±standard (mean±SD), and statistical analysis was performed by one-way analysis of variance (ANOVA) or student's t test. A difference with P<0.05 was considered statistically significant. Statistical significance was set at *P<0.05, **P<0.01, ***P<0.001 versus the model group.

ApoE knockout mice = assay: Serum lipids in hyperlipidemia ApoE knockout mice on high fat diet; assay type: in vivo; settings: positive control 3 mg/kg/day intragastric, 4 weeks, vs model group
Procedure: Fifteen C57BL/6J mice (male, 6-8 weeks) and seventy-five ApoE knockout mice (male, 6-8 weeks) were used for experiments. C57BL/6J mice were fed with normal diet, and ApoE knockout mice were fed for 1 week with a diet of normal/high fat diet ratio of 1/1.
Mice were weighed before administered drugs every week, where the dosage of the drug for mice is calculate according to the weight; and housed under 24±1° C. room temperature and 55±5% air humidity condition, and allowed enough food and water ad libitum. After the drug administration continuously for 4 weeks, the mice were anesthetized with pentobarbital sodium according to body weight. Blood (0.5 ml per mouse) was drawn from the inner canthus vein for hematology analysis. Hematology analysis: blood samples were let for standing for 2 h and centrifuged (3000 rpm, 10 min, 4° C.) to obtain serum. The total cholesterol (TC), triacylglycerol (TG) and low-density cholesterol (LDL-C) levels in the serum samples were assessed using automatic biochemical analyzer. Statistical analysis: GraphPad Prism 5 software was used to analyze and draw figure. Results were expressed as the mean±standard (mean±SD), and statistical analysis was performed by one-way analysis of variance (ANOVA) or student's t test. A difference with P<0.05 was considered statistically significant. Statistical significance was set at *P<0.05, **P<0.01, ***P<0.001 versus the model group.

[1] = Accelerated stability test of leonurine crystal forms; assay type: physicochemical; settings: 40° C.; for Crystal stability: 70% RH, 10 days
Description: In the invention, the dominant medicinal crystal form was also screened by the accelerated stability experimental method, and observed the transformation among the various crystal forms.

[2] = Hygroscopicity, dynamic vapor sorption (DVS), 0-95% RH; assay type: physicochemical; settings: for change of crystal form / hygroscopicity (in words): range of 0-95% relative humidity
Procedure: Dynamic vapor sorption (DVS) method, instrument model: SMS DVS Intrinsic, 0˜95% RH, temperature: 25° C.; FTIR method, instrument model: Nicolet 6700, sectral range: 4000˜400 cm^−1, resolution ratio: 4 cm^−1, scanning times: 32, the infrared spectra of the samples were determined by KBr pressed-disk technique method, temperature: 25° C.;
In this invention, it is named as leonurine crystal form A, which is monohydrate crystal form, square block crystal (as shown in FIG. 13), no crystal transformation before melting, dehydrates at 120˜150° C. and transform into anhydrous crystal form B, and decomposes at about 250° C. […] Under the condition of, in the suspension experiment at 25° C., in methanol, ethanol, isopropanol, acetone, acetonitrile, tetrahydrofuran, nitromethane, ethyl acetate, isopropyl acetate, isoamyl alcohol, methyl tert-butyl ether, toluene, methyl isobutyl ketone, n-hexane, n-heptane, ether, dichloromethane, chloroform, petroleum ether, water and other solvents; and under the condition of, in the suspension experiment at 50° C., in methanol, ethanol, acetone, methyl ethyl ketone, isopropyl acetate, methyl tert-butyl ether, toluene, n-hexane, n-heptane, diethyl ether, chloroform, petroleum ether, water and other solvents; and under most solvent conditions in suspension and volatilization of mixed solvents at 25° C. and 50° C., form A can be obtained. […] In a range of 0˜95% RH, the dehydration and water absorption behavior of the crystal form is very weak.

[3] = relative humidity 60%-80%, 10-day stability test

Row | Crystal stability [1] | Crystal stability ([1]; listed as B) | crystal transformation behavior [1, 3] | hygroscopicity, water absorption ([2]; 60% RH) | hygroscopicity, water absorption ([2]; 80% RH) | change of crystal form [2] | hygroscopicity (in words) [2] | Crystal stability ([1]; listed as C) | Crystal stability ([1]; listed as D) | Crystal stability ([1]; listed as E) | hygroscopicity (in words) [1, 3] | hygroscopicity relative to crystal form A [1, 3] | Crystal stability ([1]; listed as F) | Crystal stability ([1]; listed as form F) | Compound | serum total cholesterol (TC) (New Zealand white rabbit) | serum triacylglycerol (TG) (New Zealand white rabbit) | serum total cholesterol (TC) (ApoE knockout mice) | serum triacylglycerol (TG) (ApoE knockout mice)
1 |  |  |  |  |  |  |  |  |  |  |  |  |  |  | CC(C)c1c(C(=O)Nc2ccccc2)c(-c2ccccc2)c(-c2ccc(F)cc2)n1CC[C@@H](O)C[C@@H](O)CC(=O)O [Atorvastatin, reference compound] | no significant difference | reduced | reduced | reduced
2 | transformed into crystal form A | form into A | appeared crystal transformation | 60% RH, water absorption 0.14% | 80% RH, water absorption 0.30% | changed into crystal form A | slightly hygroscopicity |  |  |  |  |  |  |  | COc1cc(C(=O)OCCCCNC(=N)N)cc(OC)c1O [crystal form B, 4-guanidino-1-butyl 4-hydroxy-3,5-dimethoxybenzoate] |  |  |  | 
3 | transformed into crystal form A |  | appeared crystal transformation | 60% RH, water absorption 0.56% | 80% RH, water absorption 1.05% | changed into crystal form A |  | form into A |  |  |  |  |  |  | COc1cc(C(=O)OCCCCNC(=N)N)cc(OC)c1O [crystal form C, 4-guanidino-1-butyl 4-hydroxy-3,5-dimethoxybenzoate] |  |  |  | 
4 | transformed into crystal form A |  | appeared crystal transformation | 60% RH, water absorption 1.63% | 80% RH, water absorption 0.98% | changed into crystal form A |  |  | form into A |  |  |  |  |  | COc1cc(C(=O)OCCCCNC(=N)N)cc(OC)c1O [crystal form D, 4-guanidino-1-butyl 4-hydroxy-3,5-dimethoxybenzoate] |  |  |  | 
5 | remain unchanged |  | did not appear crystal transformation | 60% RH, water absorption 0.07% | 80% RH, water absorption 0.12% | didn't change | slight hygroscopicity |  |  | stable | strong | about ten times |  |  | COc1cc(C(=O)OCCCCNC(=N)N)cc(OC)c1O [crystal form E, 4-guanidino-1-butyl 4-hydroxy-3,5-dimethoxybenzoate] |  |  |  | 
6 |  |  | appeared crystal transformation | 60% RH, water absorption 0.14% | 80% RH, water absorption 0.30% | changes into crystal form A | slightly hygroscopicity |  |  |  |  |  | form into A | transformed into crystal form A | COc1cc(C(=O)OCCCCNC(=N)N)cc(OC)c1O [crystal form F, 4-guanidino-1-butyl 4-hydroxy-3,5-dimethoxybenzoate] |  |  |  | 
